We go through ten compounds from publication PMC6727436, “Gummosin, a sesquiterpene coumarin from Ferula assa-foetida is preferentially cytotoxic to human breast and prostate cancer cell lines” (Avicenna Journal of Phytomedicine, 2019).

In data set [1] the test system is MCF-7 human breast adenocarcinoma cell line. Nature of the data set: cells. The settings on record: for IC50: Homo sapiens, MCF7, 48 h, read-out: IC50 (µg/mL)±SD/Cell line MCF-7; for IC50 / IC50 (µg/mL)±SD/Cell line MCF-7: MCF-7, 48 hr treatment, alamarBlue; for cytotoxic activity at highest dose: MCF-7, highest dose 50 µg/mL. It is filed as cell-based. As to the method:
(§1) Human breast adenocarcinoma cell line (MCF-7), human prostate cancer cell line (PC3) and human normal fibroblast cell line (NIH) were obtained from Biotechnology Research Center (Mashhad, Iran) and subsequently grown in RPMI-1640 medium with 10% fetal bovine serum (Gibco, Invitrogen, Paisley, UK), penicillin (100 units/ml) and streptomycin ([…]) as antibiotics. The cell culture was done in a humidified incubator under the atmosphere of 5% CO2 at 37 °C.
(§2) To measure the cytotoxic activity of pure compounds, a non-fluorescent substrate called resazurin (alamarBlue®; BioSource Invitrogen, Paisley, UK) was used in this study. In this study, we used a method that was previously reported by Haaften et al., with some small modifications (van Haaften et al., 2011). Briefly, when the cells were in the exponential phase, 1×10^4 of the three cell lines were seeded in 96-well plates. The cells were incubated for 24 hr in order to adhere to the plastic surface of the bottom of the wells. After 24 hr, the cells were treated with 6.25, 12.5, 25 and 50 µg/mL of each compound from the stock solution of 5 mg/mL in dimethyl sulfoxide (DMSO) via serial solution prepared using RPMI-1640. The amount of DMSO in final culture media was lower than […]. Also, to rule out the effects of DMSO on cells, equal amount of DMSO was added to the untreated groups. After 48 hr, viability of the cells was measured by adding alamarBlue® reagent (10% of tissue culture volume from stock solution of 0.14 mg/mL). The absorbance of the wells was read at 600 nm using a microplate reader. Doxorubicin at concentrations of 0.1, 1 and 5 µg/mL was used as the positive control and the viability was calculated using following formula:
(§3) T=Absorbance of wells with pure compounds at 600 nm after 48 hr of incubation.
(§4) UT=Absorbance of wells with cell but without any compound at 600 nm after 48 hr of incubation.
(§5) B=Absorbance of blank (without cell and compounds) at 600 nm after 48 hr of incubation.
(§6) In this study, all the experiments were done at least in triplicate.

In data set [2] the test system is PC3 human prostate cancer cell line. Nature of the data set: cells. It is filed as cell-based. The settings on record: for IC50: Homo sapiens, 48 h, read-out: IC50 (µg/mL)±SD/Cell line PC3; for IC50 / IC50 (µg/mL)±SD/Cell line PC3: PC3, 48 hr treatment, alamarBlue; for cytotoxic activity at highest dose: PC3, highest dose 50 µg/mL. How it is done:
as §1, §2, §3, §4, §5, §6

In data set [3] the test system is NIH human normal fibroblast cell line. Briefly: alamarBlue (resazurin) cytotoxicity assay, NIH normal cells. It is filed as cell-based. The settings on record: for IC50: Homo sapiens, Fibroblast, NIH normal cells, 48 hr treatment, alamarBlue, read-out: IC50 (µg/mL)±SD/Cell line NIH. How it is done:
as §1, §2, §3, §4, §5, §6

The next data set deals with ovarian cancer cell line. More on the design: method as in Valiahdi et al., 2013. The conditions noted are these: ref Valiahdi et al., 2013; read-out: IC50 against ovarian cancer cell line; cited from earlier work.
On the set-up of data set [4]: method as in Iranshahi, 2018. The settings on record: cell line not stated; ref Iranshahi, 2018; cited from earlier work.
A further data set has as its system cancer cell lines. The arrangement: method as in Kasaian, et al., 2015. The settings on record: ref Kasaian, et al., 2015; cited from earlier work.

Converted amounts (≈) assume the structure as drawn.

As for `COc1cccc2c1C(=O)c1c(O)c3c(c(O)c1C2=O)C[C@@](O)(C(=O)CO)C[C@@H]3O[C@H]1C[C@H](N)[C@H](O)[C@H](C)O1` [Doxorubicin, reference compound], the IC50 in data set [1] is 0.28 µg/mL (≈ 0.515 µM); in data set [2], 0.62 µg/mL (≈ 1.14 µM).

With `C=C1CC[C@@H]2C(C)(C)[C@H](O)CC[C@@]2(C)[C@H]1COc1ccc2ccc(=O)oc2c1` [Farnesiferol A], the figures for the IC50 in data set [3], in data set [1] and in data set [2] were more than 100 µg/mL, more than 50 µg/mL and more than 50 µg/mL, respectively. In addition, the “cytotoxic activity at highest dose” value in data set [1] and in data set [2] was “did not show cytotoxic activity” in each case.

As to `C=C1CC[C@@H](O)C(C)(C)C1CC/C(C)=C/COc1ccc2ccc(=O)oc2c1` (some centres unmarked) [Farnesiferol B], the figures for the IC50 in data set [3], in data set [1] and in data set [2] were more than 100 µg/mL, less than 50 µg/mL and less than 50 µg/mL, respectively.

Turning to `C/C(=C\COc1ccc2ccc(=O)oc2c1)CC[C@@H]1C(C)(C)[C@H]2CC[C@]1(C)O2` [Farnesiferol C], the results for the IC50 in data set [3], in data set [1] and in data set [2] were more than 100 µg/mL, less than 50 µg/mL and less than 50 µg/mL, respectively. The “IC50 (µg/mL)±SD/Cell line MCF-7” value in data set [1] was determined as 41.7 ± 8.2 µg/mL (≈ 109 µM). In data set [2], the “IC50 (µg/mL)±SD/Cell line PC3” value came to 43.1 ± 9.5 µg/mL (≈ 113 µM).

In the case of `C=C1CCC2C(C)(C)C(O)CCC2(C)C1COc1ccc2ccc(=O)oc2c1` (centres unmarked) [Gummosin], the IC50 in data set [3] is more than 100 µg/mL. In addition, the “toxicity in normal cell line” value in data set [3] (NIH normal cell line, at 50 µg/mL) was “did not cause any toxicity”. In addition, in data set [1], the IC50 is less than 50 µg/mL and the “IC50 (µg/mL)±SD/Cell line MCF-7” value came to 32.1 ± 2.3 µg/mL (≈ 83.9 µM). Besides, in data set [2], the IC50 was less than 50 µg/mL and the “IC50 (µg/mL)±SD/Cell line PC3” value worked out at 30.0 ± 4.7 µg/mL (≈ 78.4 µM).

With `CC1(C)CC[C@H]2C(C)(C)[C@H](O)CC[C@]2(C)[C@H]1COc1ccc2ccc(=O)oc2c1` [Samarcandin], the IC50 was more than 100 µg/mL in data set [3], more than 50 µg/mL in data set [1] and more than 50 µg/mL in data set [2]. In addition, the “cytotoxic activity at highest dose” value in data set [1] and in data set [2] was “unable to induce toxicity” in each case.

In the case of `CC(C)=CCC/C(C)=C/CC/C(C)=C/COc1ccc2ccc(=O)oc2c1` [Umbelliprenin], the figures for the IC50 in data set [3], in data set [1] and in data set [2] were more than 100 µg/mL, more than 50 µg/mL and more than 50 µg/mL, respectively.

In the case of `CC1=CCC2C(C)(C)C(=O)CCC2(C)C1COc1ccc2ccc(=O)oc2c1` (centres unmarked) [conferone], the IC50 in the data set with ovarian cancer cell line is 7.79 µM.

In the case of `CC(C)=CCC/C(C)=C/CC/C(C)=C/Cc1c(O)c2ccccc2oc1=O` [ferulenol], the “IC50 (cytotoxic activity)” value in data set [4] is on record as 1 µg/mL (≈ 2.73 µM).

Turning to `CC1=CC[C@@H]2C(C)(C)[C@H](O)CC[C@@]2(C)[C@@H]1COc1ccc2ccc(=O)oc2c1` [feselol, Feselol], the “activity against cancer cell lines” value in the data set with cancer cell lines is “inactive”.
